In ChEMBL document CHEMBL5126580, “Design, synthesis and biological evaluation of 2-pyrrolone derivatives as radioprotectors” (Bioorg Med Chem, 2022):
Activity calls are given as the source filed them. The calls are words filed in the database; no cut-off is given here.

Legend:
MOLT-4 [1] = assay: Cytotoxicity against human MOLT-4 cells assessed as reduction in cell viability measured after 1 hr by erythrosin B staining based dye exclusion assay; format: toxicity; details: molt-4, 1 h
[2] = target: Cellular tumor antigen p53 (Homo sapiens) (UniProt P04637); assay: Inhibition of p53 in human MOLT-4 cells assessed as suppression of gamma-irradiation-induced decrease in cell viability at 50 to 100 uM preincubated for 1 hr followed by 10 Gy 137Cs gamma-ray exposure and measured after 27 hrs by erythrosin B staining based dye exclusion assay; details: dose 50-100 µM, time 28.0 hrs
[3] = target: Cellular tumor antigen p53 (Homo sapiens) (UniProt P04637); assay: Inhibition of p53 in human MOLT-4 cells assessed as suppression of gamma-irradiation-induced decrease in cell viability at 20 to 100 uM preincubated for 1 hr followed by 10 Gy 137Cs gamma-ray exposure and measured after 27 hrs by erythrosin B staining based dye exclusion assay; details: dose 20-100 µM, time 28.0 hrs
MOLT-4 [4] = assay: Radioprotective activity in gamma-irradiated human MOLT-4 cells assessed as reduction in p53 expression at 3 to 100 uM preincubated for 1 hr followed by 10 Gy 137Cs gamma-ray exposure and measured after 6 hrs by Western blot analysis; format: functional, cell-based; details: dose 3-100 µM, time 7.0 hrs
[5] = target: Cellular tumor antigen p53 (Homo sapiens) (UniProt P04637); assay: Inhibition of p53 in human MOLT-4 cells assessed as suppression of gamma-irradiation-induced decrease in cell viability at 20 uM preincubated for 1 hr followed by 10 Gy 137Cs gamma-ray exposure and measured after 27 hrs by erythrosin B staining based dye exclusion assay; details: time 28.0 hrs
MOLT-4 [6] = assay: Cytotoxicity against human MOLT-4 cells assessed as reduction in cell viability at 80 uM measured after 1 hr by erythrosin B staining based dye exclusion assay; format: toxicity; details: molt-4, 1 h
[7] = target: Cellular tumor antigen p53 (Homo sapiens) (UniProt P04637); assay: Inhibition of p53 in human MOLT-4 cells assessed as suppression of gamma-irradiation-induced decrease in cell viability at 40 uM preincubated for 1 hr followed by 10 Gy 137Cs gamma-ray exposure and measured after 27 hrs by erythrosin B staining based dye exclusion assay; details: time 28.0 hrs
MOLT-4 [8] = assay: Cytotoxicity against human MOLT-4 cells assessed as reduction in cell viability at 40 uM measured after 1 hr by erythrosin B staining based dye exclusion assay; format: toxicity; details: molt-4, 1 h
MOLT-4 [9] = assay: Cytotoxicity against human MOLT-4 cells assessed as reduction in cell viability at 10 to 20 uM measured after 1 hr by erythrosin B staining based dye exclusion assay; format: toxicity; details: molt-4, 1 h, dose 10-20 µM

Cellular tumor antigen p53 (Homo sapiens), sequence (P04637 whole entry, looked up): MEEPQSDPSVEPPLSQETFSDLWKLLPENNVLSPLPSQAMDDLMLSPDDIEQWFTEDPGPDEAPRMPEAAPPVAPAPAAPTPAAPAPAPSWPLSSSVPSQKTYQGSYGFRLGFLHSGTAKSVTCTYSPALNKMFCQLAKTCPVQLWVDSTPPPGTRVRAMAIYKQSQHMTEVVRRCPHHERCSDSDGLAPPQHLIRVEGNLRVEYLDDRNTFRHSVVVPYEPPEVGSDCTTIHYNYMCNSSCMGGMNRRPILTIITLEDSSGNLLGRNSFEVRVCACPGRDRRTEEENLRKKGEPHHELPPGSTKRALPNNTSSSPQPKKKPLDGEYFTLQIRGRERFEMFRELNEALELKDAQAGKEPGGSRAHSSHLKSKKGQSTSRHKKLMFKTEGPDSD

SMILES | Activity (MOLT-4 [1]) | inhibition [3] | further results
COC(=O)C1=C(C)N(c2cccc(OC)c2)C(=O)/C1=C\c1ccc([N+](=O)[O-])cc1 | Toxic |  | 
COC(=O)C1=C(C)N(c2cccc(OC)c2)C(=O)/C1=C\c1ccc(Cl)cc1 | Toxic |  | 
CNC(=O)C1=C(C)N(c2cccc(OC)c2)C(=O)/C1=C\c1ccc(C(=O)O)cc1 |  |  | inhibition [2]: Active
COC(=O)C1=C(C)N(c2cccc(OC)c2)C(=O)/C1=C\c1ccccc1S(=O)(=O)[O-].[Na+] | Non-Toxic |  | 
COC(=O)C1=C(C)N(c2cccc(OC)c2)C(=O)/C1=C\c1ccncc1 | Toxic |  | 
COC(=O)C1=C(C)N(c2cccc(OC)c2)C(=O)/C1=C\c1ccc(S(N)(=O)=O)cc1 | Toxic |  | 
COC(=O)C1=C(C)N(c2cccc(OC)c2)C(=O)/C1=C\c1ccc(-c2nnn[nH]2)cc1 |  | Active | Activity (MOLT-4 [4]): Active
COC(=O)C1=C(C)N(c2cccc(OC)c2)C(=O)/C1=C\c1ccc(OC)cc1 | Toxic |  | 
COC(=O)C1=C(C)N(c2cccc(OC)c2)C(=O)/C1=C\c1cncnc1 | Toxic |  | 
COC(=O)C1=C(C)N(c2ccccc2)C(=O)/C1=C\c1ccc(C(=O)O)cc1 |  | Active | 
COc1cccc(N2C(=O)/C(=C\c3ccc(C(=O)O)cc3)C(C(=O)OC(C)(C)C)=C2C)c1 | Toxic |  | 
CCOC(=O)c1ccc(/C=C2\C(=O)N(c3cccc(OC)c3)C(C)=C2C(=O)OC)cc1 | Toxic |  | 
CCCCCCOC(=O)C1=C(C)N(c2cccc(OC)c2)C(=O)/C1=C\c1ccc(C(=O)O)cc1 | Toxic |  | 
COC(=O)C1=C(C)N(c2cccc(OC)c2)C(=O)/C1=C/c1ccc(C(=O)O)cc1 |  | Active | 
CCOC(=O)C1=C(C)N(c2cccc(OC)c2)C(=O)/C1=C\c1ccc(C(=O)O)cc1 |  | Active | 
COC(=O)C1=C(C)N(c2ccccc2OC)C(=O)/C1=C\c1ccc(C(=O)O)cc1 |  | Active | 
COC(=O)C1=C(C)N(c2cccc(OC(C)C)c2)C(=O)/C1=C\c1ccc(C(=O)O)cc1 |  |  | inhibition [5]: Active; Activity (MOLT-4 [6]): Toxic; Activity (MOLT-4 [4]): Active
COC(=O)C1=C(C)N(c2cccc(OC)c2)C(=O)/C1=C\c1ccncc1O | Toxic |  | 
COC(=O)C1=C(C)N(c2cccc(OC)c2)C(=O)C1=Cc1ccc(C(=O)O)cc1 |  | Active | 
COC(=O)C1=C(C)N(c2cccc(OC)c2)C(=O)/C1=C\c1ccc(C(=O)NO)cc1 |  |  | inhibition [7]: Active; Activity (MOLT-4 [8]): Non-Toxic; Activity (MOLT-4 [9]): Toxic
COC(=O)C1=C(C)N(c2ccc(OC)cc2)C(=O)/C1=C\c1ccc(C(=O)O)cc1 |  | Active | 
CCCCCCOc1cccc(N2C(=O)/C(=C\c3ccc(C(=O)O)cc3)C(C(=O)OC)=C2C)c1 | Toxic |  | 
COC(=O)C1=C(C)N(c2cccc(O)c2)C(=O)/C1=C\c1ccc(C(=O)O)cc1 |  |  | inhibition [2]: Active
COC(=O)C1=C(C)N(c2cccc(OC)c2)C(=O)/C1=C\c1ccc(C(=O)O)cc1 |  |  | inhibition [5]: Active; Activity (MOLT-4 [6]): Toxic; Activity (MOLT-4 [4]): Active
COC(=O)C1=C(C)N(c2cccc(OC)c2)C(=O)/C1=C\c1cccc(C(=O)O)c1 |  | Active | 
